Results from patent US20100261753A1, “METHODS FOR PREVENTING AND/OR TREATING DEGENERATIVE DISORDERS OF THE CENTRAL NERVOUS SYSTEM” (AMICUS THERAPEUTICS, INC., priority 2009, published 2010).
Counter-ions that a name gives are not always drawn.

Experiments:
[1] = Compound concentration in brain, spleen and plasma samples of the GCase enhancement study; assay type: in vivo, mice (C57BL/6); conditions: male, C57BL/6, mouse, po, nine doses, 24-hour washout
Procedure: The ability of orally administered test compounds (the hydrochloride salt form of Compound A and Compound B) to elevate GCase levels as compared to reference compound, IFG-tartrate, was assessed in mice. […] Seven animals were used per dose. The dosing solutions were prepared in water. Compounds were administered over 2 weeks as follows: week 1, Mon-Fri (On), Sat-Sun (Off); week 2, Mon-Thu (On); necropsy on Friday. Thus, a total of 9 doses (dosing solutions prepared fresh every day) were given to each mouse, with a 24-hour washout between the last dose and necropsy.
Plasma was collected by spinning blood at 2700 g for 10 minutes at 4° C. Liver, spleen, lung, and brain tissues were removed, washed in cold PBS, blotted dry, flash frozen on dry ice, and stored at −80° C. until analysis. GCase levels were measured by homogenizing approximately 50 mg tissue in 500 μl McIlvane (MI) buffer (100 mM sodium citrate, 200 mM sodium phosphate dibasic, 0.25% sodium taurocholate, and 0.1% Triton X-100, pH 5.2) at pH 5.2 for 3-5 seconds on ice with a micro homogenizer. Homogenates were then incubated at room temperature without and with 2.5 mM conduritol-B-epoxide (CBE) for 30 min. Finally, 3.7 mM 4-methylumbeliferryl-β-glucoside (4-MUG) substrate was added and incubated at 37° C. for 60 min. Reactions were stopped by addition of 0.4 M glycine, pH 10.6. Fluorescence was measured on a plate reader for 1 sec/well using 355 nm excitation and 460 nm emission. Total protein was determined in lysates using the MicroBCA kit according to the manufacturer's instructions. A 4-methylumbelliferone (4-MU) standard curve ranging from 1.0 nM to 50 μM was run in parallel for conversion of raw fluorescence data to absolute GCase activity (in the presence and absence of CBE) and expressed as nanomoles of 4-MU released per milligram of protein per hour (nmol/mg protein/hr). GCase levels and protein levels were calculated using Microsoft Excel (Redmond, Wash.) and GraphPad Prism version 4.02.

GCase = target: T1, GCase (Homo sapiens, UniProt P04062); assay: GCase activity enhancement (EC50, Emax; Table 2B); assay type: cell-based
T1 sequence (P04062 40-536): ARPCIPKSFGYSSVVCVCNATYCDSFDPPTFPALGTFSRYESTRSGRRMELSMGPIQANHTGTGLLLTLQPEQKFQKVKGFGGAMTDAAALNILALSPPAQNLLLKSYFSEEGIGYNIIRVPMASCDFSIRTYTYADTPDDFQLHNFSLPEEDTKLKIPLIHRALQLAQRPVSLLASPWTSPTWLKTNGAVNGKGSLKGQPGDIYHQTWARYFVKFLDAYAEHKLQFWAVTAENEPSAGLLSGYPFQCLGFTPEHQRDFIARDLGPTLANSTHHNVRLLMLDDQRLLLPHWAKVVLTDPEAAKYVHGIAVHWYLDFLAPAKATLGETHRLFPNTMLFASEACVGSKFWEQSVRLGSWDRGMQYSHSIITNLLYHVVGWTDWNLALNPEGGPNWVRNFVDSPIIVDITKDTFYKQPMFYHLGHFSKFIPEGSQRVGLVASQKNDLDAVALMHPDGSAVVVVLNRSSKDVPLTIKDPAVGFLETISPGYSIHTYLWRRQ

With `Cl.O[C@@H]1[C@@H](CF)CNC[C@H]1O` [Compound A-HCl, (3R,4R,5R)-5-(fluoromethyl)piperidine-3,4-diol hydrochloride] as the molecule, how does the melting point read?
Its melting point is 200 to 202 °C.

Which results are given for `OC[C@H]1CNC[C@@H](O)[C@@H]1O` [IFG, (3R,4R,5R)-5-(hydroxymethyl)-3,4-piperidinediol, reference compound]?
concentration at 24 h ([1]; brain, 10 mg/kg, 10 mg/kg p.o., Table 4A): 49 ± 2.4 nM; concentration at 24 h ([1]; brain, 100 mg/kg, 100 mg/kg p.o., Table 3A): 182 ± 13 nM; concentration at 24 h ([1]; brain, 100 mg/kg, 100 mg/kg p.o., Table 4A): 287 ± 74 nM; concentration at 24 h ([1]; plasma, 10 mg/kg, 10 mg/kg p.o., Table 4C): 67 ± 10 nM; concentration at 24 h ([1]; plasma, 100 mg/kg, 100 mg/kg p.o., Table 3C): 330 ± 36 nM; concentration at 24 h ([1]; plasma, 100 mg/kg, 100 mg/kg p.o., Table 4C): 852 ± 134 nM; concentration at 24 h ([1]; spleen, 10 mg/kg, 10 mg/kg p.o., Table 4B): 150 ± 12 nM; concentration at 24 h ([1]; spleen, 100 mg/kg, 100 mg/kg p.o., Table 3B): 711 ± 100 nM; concentration at 24 h ([1]; spleen, 100 mg/kg, 100 mg/kg p.o., Table 4B): 1140 ± 220 nM

Which Emax (GCase) does the source give for `OC[C@H]1CNC[C@@H](O)[C@@H]1O` [IFG-Tartrate, Isofagomine tartrate, reference compound] here?
Its Emax is 93.6 ± 2.5%.
